{"source": "patent US20240158447A1", "about": "“PEPTIDES FOR USE IN THE TREATMENT OR PREVENTION OF MYOCARDIAL DAMAGE” (THE UNIVERSITY OF WESTERN AUSTRALIA, priority 2020, published 2024)", "key": {"[1]": {"system": "wildtype cardiac myocytes", "assay": "Mitochondrial flavoprotein oxidation after BayK(−), wildtype cardiac myocytes (Example 6)", "assay_type": "cell-based, mouse", "details": "wild type hearts, FIG. 4", "experimental": "(§1) Adult male C57BL/6J mice were anesthetized with pentobarbitone sodium (240 mg/kg) via intraperitoneal injection prior to excision of the heart. Ventricular myocytes were isolated. Mouse hearts were cannulated onto a Langendorff apparatus via the aorta and perfused retrogradely with Krebs-Henseleit Buffer (KHB) containing (in mM): 120 NaCl, 25 NaHCO3, 4.8 KCl, 2.2 MgSO4, 1.2 NaH2PO4 and 11 glucose (pH=7.35 with O2/CO2 at 37° C.) for 4 min at 37° C. Hearts were then perfused with KHB supplemented with 2.4 mg/ml collagenase B for 3 min, then 8 min perfusion in the presence of 40 μM calcium. Following perfusion, aorta and atria were removed, and ventricles gently teased apart and triturated to dissociate myocytes into suspension. […]\n(§2) All in vitro studies were performed in freshly isolated myocytes at 37° C. […] Following a 20 min incubation with 0.5-1 μM AID(S)-TAT, AID-TAT, peptide 6 or peptide 7, fluorescent signal of individual myocytes was quantified using Metamorph 6.3 to measure signal intensity of manually traced cell regions. […]\nAutofluorescence was used to measure flavoprotein oxidation in cardiac myocytes based on previously described methods (480 nm ex, 535 nm em). […] Fluorescence was reported as a percentage from the baseline pre-treatment average."}, "[2]": {"system": "myocytes isolated from cTnI-G203S mutant mouse hearts", "assay": "Mitochondrial flavoprotein oxidation after BayK(−), myocytes from HCM hearts (Example 6)", "assay_type": "cell-based", "details": "FIG. 5", "experimental": "FIG. 5 presents the effect of mutant peptides on flavoprotein oxidation, a measure of metabolic activity and oxygen consumption in myocytes isolated from cTnI-G203S mutant mouse hearts that are hypertrophic.\nAll in vitro studies were performed in freshly isolated myocytes at 37° C. […] Following a 20 min incubation with 0.5-1 μM AID(S)-TAT, AID-TAT, peptide 6 or peptide 7, fluorescent signal of individual myocytes was quantified using Metamorph 6.3 to measure signal intensity of manually traced cell regions. An equivalent region not containing cells was used for background and was subtracted.\nAutofluorescence was used to measure flavoprotein oxidation in cardiac myocytes based on previously described methods (480 nm ex, 535 nm em). Fluorescent images were taken at 1 min intervals with 1 s exposure before and after exposure to L-type Ca2+ channel agonist BayK(−). Fluorescence was reported as a percentage from the baseline pre-treatment average."}, "[3]": {"target": "T1, L-type Ca^2+ channel β2 subunit (Homo sapiens, UniProt Q08289)", "T1 construct": "from tissue; host or cells: whole heart (cardiac) lysate", "T1 sequence (Q08289 whole entry)": "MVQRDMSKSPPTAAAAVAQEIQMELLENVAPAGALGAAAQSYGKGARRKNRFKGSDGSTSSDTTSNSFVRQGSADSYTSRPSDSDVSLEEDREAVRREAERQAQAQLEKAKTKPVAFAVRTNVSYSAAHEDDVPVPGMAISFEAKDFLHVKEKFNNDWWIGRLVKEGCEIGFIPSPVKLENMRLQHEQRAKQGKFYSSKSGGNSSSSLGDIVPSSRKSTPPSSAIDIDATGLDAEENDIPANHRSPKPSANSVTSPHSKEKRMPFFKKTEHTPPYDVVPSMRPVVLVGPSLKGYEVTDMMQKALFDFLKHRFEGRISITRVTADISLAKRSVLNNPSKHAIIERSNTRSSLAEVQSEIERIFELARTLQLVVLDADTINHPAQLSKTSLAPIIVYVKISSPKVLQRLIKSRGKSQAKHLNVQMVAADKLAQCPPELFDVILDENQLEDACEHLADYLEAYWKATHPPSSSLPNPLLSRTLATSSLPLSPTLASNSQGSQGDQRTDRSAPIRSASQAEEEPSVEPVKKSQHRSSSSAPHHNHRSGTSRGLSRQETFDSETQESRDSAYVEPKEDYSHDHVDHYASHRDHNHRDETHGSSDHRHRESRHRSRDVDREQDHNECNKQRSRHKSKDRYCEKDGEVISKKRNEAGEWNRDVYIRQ", "assay": "Binding competition assay of variant peptides for the β2 subunit (AID-coated beads, heart lysate, SDS-PAGE)", "details": "competition with bead-bound AID peptide, whole heart lysate, immunoblot densitometry; FIG. 2", "experimental": "The affinity of each of the variant peptides to the β2 subunit was investigated through binding competition assays.\nPureProteome™ NHS FlexiBind Magnetic Beads (Cat. #LSKMAGN04, Merck) were used following manufacturer recommendations. Aminohexanoic acid linked AID peptide was bound to the NHS flexibind magnetic beads at a concentration of more than 2 mg/mL to obtain saturation of the beads with peptide. Beads were first primed with an equilibration buffer (1 mM HCL) to prepare them for binding. The Ahx-AID peptide was dissolved in wash/coupling buffer (PBS, pH 7.4) and added to the beads. The beads-AID peptide mixture was left to mix uniformly on a multiplate shaker at a speed of 300 rpm at room temperature for 2 hours. To reduce non-specific binding the beads were incubated in Quench Buffer (100 mM Tris-HCl, 150 mM NaCl, pH 8.0) at room temperature for 1 hour.\nThe AID-peptide bound beads were split into 5 aliquots for the 5 samples prepared in Table 5. The whole heart lysate added to each of the peptide-bound beads to allow competitive binding for 2 hours at room temperature.\nUpon completion, the conjugate was washed in coupling buffer, to remove unbound fraction. SDS sample buffer was added to the beads, with the tubes then heated for 5 minutes at 95° C. The eluted sample stored at −20° C. to be run through sodium dodecyl sulfate-polyacrymalide gel electrophoresis (SDS-PAGE) to determine the binding affinity of each of the variants.\nThe use of streptavidin dynabeads and biotinylated peptide was developed to improve the binding affinity assays. The peptide was initially biotinylated using EZ-link amine-PEG11-biotin (Spacer arm: 53.2 Å, Thermofisher Scientific, Cat. #26136) which was dissolved in 0.1M MES buffer ((2-N-morpholino)-ethanesulfonic acid) at a concentration of 1 mM. Just prior to the reaction, 0.1M EDC (N-(3-Dimethylaminopropyl)-N′-ethylcarbodiimide hydrochloride) was dissolved in MES buffer. In order to achieve complete biotinylation of the AID peptide, a 50× molar excess of biotin to peptide was required, with the total volumes of each component required shown in Table 6.\nEach 78 μL aliquot of the biotinylated peptide shown in […] was enough for 6 reactions, covering the range of concentrations in which the heart lysate was again prepared with varying concentrations of the variant AID peptides according to Table 7.\nThe 78 μL aliquot of biotinylated AID-peptide was mixed with streptavidin dynabeads (1 mg Dynabeads per every 200 pmol biotinylated peptide) for half an hour at room temperature. The heart lysate ([…]) was incubated with the variant peptides at room temperature for 2 hours. After removing all unbound peptide from the beads, they were mixed with the pre-bound heart lysate for 2 hours at room temperature. The unbound fraction was removed. […]"}, "[4]": {"system": "wild type cardiac myocytes", "assay": "Intracellular calcium (Fura-2) after H2O2 in cardiac myocytes", "assay_type": "cell-based, mouse", "details": "20 min incubation with 0.5-1 μM peptide; 30 μM H2O2 5 min; FIG. 3(a)", "experimental": "Adult male C57BL/6J mice were anesthetized with pentobarbitone sodium (240 mg/kg) via intraperitoneal injection prior to excision of the heart. Ventricular myocytes were isolated. Mouse hearts were cannulated onto a Langendorff apparatus via the aorta and perfused retrogradely with Krebs-Henseleit Buffer (KHB) containing (in mM): 120 NaCl, 25 NaHCO3, 4.8 KCl, 2.2 MgSO4, 1.2 NaH2PO4 and 11 glucose (pH=7.35 with O2/CO2 at 37° C.) for 4 min at 37° C. Hearts were then perfused with KHB supplemented with 2.4 mg/ml collagenase B for 3 min, then 8 min perfusion in the presence of 40 μM calcium. […]\nas §2\nIntracellular calcium was monitored in cardiac myocytes using the fluorescent indicator Fura-2 AM (Fura-2, 1 μM, ex 340/380 nm, em 510 nm, Molecular Probes). […] Fluorescence at 340/380 nm excitation and 510 nm emission were measured at 1 minute intervals with an exposure of 50 ms before and after exposure to 30 μM H2O2 (5 min) and 10 U/ml catalase (5 min). Ratiometric 340/380 nm signal was quantified and reported as a percentage from the baseline pre-treatment average."}, "[5]": {"system": "wild type cardiac myocytes", "assay": "Intracellular superoxide (DHE) after H2O2 in cardiac myocytes", "assay_type": "cell-based, mouse", "details": "20 min incubation with 0.5-1 μM peptide; 30 μM H2O2 5 min; FIG. 3(b)", "experimental": "as §1, §2\nSuperoxide generation was assessed in cardiac myocytes using the fluorescent indicator dihydroethidium (DHE, 5 μM, 515-560 nm ex filter, 590 long pass em, Merck). […] Fluorescence was reported as percentage change in the slope of the signal measured at 20-40 min (treatment) over 1-10 min (pre-treatment)."}}, "note": "Entries after “also recorded” stand apart in the source; their conditions may differ."}
{"sequence": "QQQEEDLKGYLDWITQAE (Variant P7)", "values": [{"measurement": "flavoprotein oxidation in comparison with AID-TAT peptide", "setting": "[1]", "value": "statistically significant reduction in flavoprotein oxidation in comparison with AID-TAT peptide"}, {"measurement": "flavoprotein oxidation in comparison with AID-TAT peptide", "setting": "[2]", "value": "statistically significant reduction in flavoprotein oxidation in comparison with AID-TAT peptide"}, {"measurement": "binding affinity (K0.5) for the target β2 subunit versus the original AID peptide", "setting": "[3]", "value": "greater binding affinity (lower K0.5)"}, {"measurement": "H2O2 induced increase in intracellular Ca2+ (Fura 2)", "setting": "[4]", "value": "altered the increase in Fura 2 following H2O2; also recorded: more effective at decreasing H2O2 induced increases in intracellular Ca^2+ (Fura 2) and superoxide production (DHE) than AID-TAT"}, {"measurement": "H2O2 induced superoxide production (DHE)", "setting": "[5]", "value": "more effective at decreasing H2O2 induced increases in intracellular Ca^2+ (Fura 2) and superoxide production (DHE) than AID-TAT"}]}
